Where a name gives a salt, the structure may show the parent alone.

Data on 51 molecules can be found in PMC5706701, “Development of a homogenous high-throughput assay for inositol hexakisphosphate kinase 1 activity” (PLoS ONE, 2017).

The target in this test is T1, Human IP6K1 (Homo sapiens, UniProt Q92551).
T1 construct: GST (N, cleaved yes); made in house; host or cells: C43 E. coli, pGEX-6P-2
In words: IP6K1 high-throughput screen of the Sigma LOPAC (ADP-Glo Max, single point).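 Note: final compound concentration 10µM in 5% DMSO.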 The format is biochemical. A general note: ADP-Glo first removes unused ATP, then detects ADP through luciferase.

Setting [1] is: Sigma LOPAC single-point screen, ADP-Glo Max raw signal per well.
The mark [2] stands for this setting: Sigma LOPAC single-point screen, Z-score from plate average and StDev.
Where [3] appears, read: LOPAC single-point screen, ADP-Glo Max luminescence raw signal per well.
The mark [4] stands for this setting: LOPAC single-point screen, Z-score relative to plate average and StDev.
The mark [5] stands for this setting: LOPAC single-point screen, ADP-Glo Max raw signal per well.
Setting [6] is: LOPAC single-point screen, Z-score from raw signal with plate average and StDev.
The mark [7] stands for this setting: LOPAC single-point screen, Z-score against plate average and StDev.
[8] abbreviates: LOPAC single-point screen, Z-score from plate average and StDev.

T1 sequence (Q92551 whole entry): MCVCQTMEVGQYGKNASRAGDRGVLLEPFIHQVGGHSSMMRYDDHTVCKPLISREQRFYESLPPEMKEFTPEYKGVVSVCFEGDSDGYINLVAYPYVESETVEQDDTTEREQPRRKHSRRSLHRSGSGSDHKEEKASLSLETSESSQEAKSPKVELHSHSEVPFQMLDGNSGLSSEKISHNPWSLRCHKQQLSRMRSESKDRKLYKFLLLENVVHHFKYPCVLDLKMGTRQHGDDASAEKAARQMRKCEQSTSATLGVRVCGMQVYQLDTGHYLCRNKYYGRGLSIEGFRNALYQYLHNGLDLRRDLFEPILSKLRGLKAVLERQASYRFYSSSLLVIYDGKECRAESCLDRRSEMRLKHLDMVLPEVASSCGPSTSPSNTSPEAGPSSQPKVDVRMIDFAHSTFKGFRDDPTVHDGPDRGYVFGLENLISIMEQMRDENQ

Consider `COc1ccc(CN(CCN(C)C)c2ccccn2)cc1` [Pyrilamine maleate], for which, under setting [1], the “Raw Signal” value worked out at 60252. Under setting [2], this molecule had a Z-score of 0.9844.
As for `Oc1ccccc1O` [Pyrocatechol], under setting [3], the “Raw Signal” value was 49319. Under setting [4], this molecule displayed a Z-score of -1.514.
With `C[C@@H]1C(=O)NC2=Nc3cccc(Cl)c3CN21` [Quazinone], the “Raw Signal” value under setting [5] was 53682. Under setting [6], this molecule came in with a Z-score of -0.455.
In the case of `O=c1c(O)c(-c2ccc(O)c(O)c2)oc2cc(O)cc(O)c12` [Quercetin dihydrate], the “Raw Signal” value under setting [3] was 52548. Moreover, the Z-score under setting [4] is on record as -0.6753.
`CCN(CC)CCCC(C)Nc1c2ccc(Cl)cc2nc2ccc(OC)cc12` (centres unmarked) [Quinacrine dihydrochloride]: the “Raw Signal” value under setting [1] is 60550. This molecule had a Z-score under setting [2] of 0.8794.
On to `CCCN1CCC[C@@H]2Cc3nc(N)ncc3C[C@H]21.Cl.Cl` [Quinelorane dihydrochloride], for which the “Raw Signal” value under setting [3] was determined as 53110. Further, the Z-score under setting [4] is given as -0.5661.
Regarding `C=C[C@H]1C[N@@]2CC[C@H]1C[C@@H]2[C@@H](O)c1ccnc2ccc(OC)cc12` [Quinidine sulfate], the “Raw Signal” value under setting [5] came out at 56373. The same molecule displayed a Z-score under setting [7] of 0.06784.
For the molecule `C=C[C@H]1C[N@@]2CC[C@H]1C[C@H]2[C@H](O)c1ccnc2ccc(OC)cc12` [Quinine sulfate], the “Raw Signal” value under setting [5] amounted to 53765. Moreover, the Z-score under setting [6] is -0.4388.
`O=C(O)c1cccnc1C(=O)O` [Quinolinic acid]: under setting [3], the “Raw Signal” value is listed as 51489. The Z-score under setting [4] was -0.881.
In the case of `O=C(O)/C=C\C(=O)O.O=C(O)/C=C\C(=O)O.c1ccc2nc(N3CCNCC3)ccc2c1` [Quipazine dimaleate], under setting [5], the “Raw Signal” value is on record as 57228. The Z-score under setting [7] came to 0.234.
Consider `O=C(O)/C=C\C(=O)O.O=[N+]([O-])c1ccc2nc(N3CCNCC3)ccc2c1` [Quipazine, 6-nitro-, maleate], for which the Z-score under setting [6] is reported as -0.2764.
As for `CN1CCN(c2ccc3ccccc3n2)CC1.O=C(O)/C=C\C(=O)O.O=C(O)/C=C\C(=O)O` [Quipazine, N-methyl-, dimaleate], under setting [3], the “Raw Signal” value was determined as 51627. The molecule also returned a Z-score under setting [4] of -0.8542.
With `CCCN1CCC[C@H](c2cccc(O)c2)C1.Cl` [R(+)-3PPP hydrochloride], the “Raw Signal” value under setting [3] stood at 50646. The molecule further yielded a Z-score under setting [4] of -1.045.
In the case of `Br.C=CCN1CCc2c(cc(O)c(O)c2Br)[C@@H](c2ccccc2)C1` [R(+)-6-Bromo-APB hydrobromide], the “Raw Signal” value under setting [5] was found to be 58651. The Z-score under setting [7] is listed as 0.13.
For `CC(C)NC[C@@H](O)COc1ccc(CC(N)=O)cc1` [R(+)-Atenolol], under setting [3], the “Raw Signal” value was 54301. Also, the Z-score under setting [4] is -0.6362.
On the same counts, the results for `C[C@@]1(C2CCCC2)Cc2cc(OCC(=O)O)c(Cl)c(Cl)c2C1=O` [R(+)-IAA-94] are 46670 and -1.298.
With `CN1CCc2cc(Cl)c(O)cc2[C@@H](c2ccccc2)C1.Cl` [R(+)-SCH-23390 hydrochloride], the “Raw Signal” value under setting [5] was determined as 55189. Under setting [7], this molecule returned a Z-score of 0.004461.
Turning to `CCN(CC)C(=O)N[C@H]1C[C@@H]2c3cccc4[nH]cc(c34)C[C@H]2N(C)C1` [R(+)-Terguride], the “Raw Signal” value under setting [1] was 59619. The molecule also came in with a Z-score under setting [2] of 0.6985.
As to `CCCN(CCC)[C@@H]1CCc2c(F)ccc(O)c2C1.Cl` [R(+)-UH-301 hydrochloride], the “Raw Signal” value under setting [5] came to 54775. This molecule showed a Z-score under setting [6] of -0.2426.
Turning to `COc1ccc2c(c1O)-c1cccc3c1[C@@H](C2)N(C)CC3.Cl` [R(-)-Apocodeine hydrochloride], under setting [3], the “Raw Signal” value turned out to be 50869. In addition, under setting [4], the Z-score is listed as -0.8729.
Consider `COc1ccc(CCNC[C@H](O)c2ccc(O)cc2)cc1OC` [R(-)-Denopamine], for which the “Raw Signal” value under setting [1] is 58220. The same molecule yielded a Z-score under setting [2] of 0.4267.
In the case of `CC(C)NC[C@H](O)c1ccc(O)c(O)c1.O=C(O)C(O)C(O)C(=O)O` [R(-)-Isoproterenol (+)-bitartrate], under setting [3], the “Raw Signal” value stood at 62194. The molecule further registered a Z-score under setting [8] of 1.427.
Consider `C[C@H](Cc1ccccc1)Nc1ncnc2c1ncn2[C@@H]1O[C@H](CO)[C@@H](O)[C@H]1O` [R(-)-N6-(2-Phenylisopropyl)adenosine], for which the “Raw Signal” value under setting [1] is recorded as 58463. Besides, the Z-score under setting [2] was 0.6838.
Consider `Br.C=CCN1CCc2cccc3c2[C@H]1Cc1ccc(O)c(O)c1-3` [R(-)-N-Allylnorapomorphine hydrobromide], for which the “Raw Signal” value under setting [3] is given as 62401. Moreover, the Z-score under setting [8] came to 1.469.
As to `CCCN1CCc2cccc3c2[C@H]1Cc1ccc(O)c(O)c1-3.Cl` [R(-)-Propylnorapomorphine hydrochloride], the “Raw Signal” value under setting [3] came to 49804. The Z-score under setting [4] is listed as -1.089.
Consider `Br.CCCN(CCC)[C@@H]1CCc2ccc(O)cc2C1` [R-(+)-7-Hydroxy-DPAT hydrobromide], for which the “Raw Signal” value under setting [3] is 62909. The Z-score under setting [8] is reported as 1.572.
On to `Br.CCCN(CCC)[C@@H]1CCc2cccc(O)c2C1` [R-(+)-8-Hydroxy-DPAT hydrobromide], for which the “Raw Signal” value under setting [1] turned out to be 58179. In addition, the Z-score under setting [2] worked out at 0.6117.
In the case of `C#CCN(C)[C@H](C)Cc1ccccc1.Cl` [R-(-)-Deprenyl hydrochloride], the “Raw Signal” value under setting [5] turned out to be 53619. Moreover, under setting [6], the Z-score is reported as -0.1301.
For `C#CCN[C@H](C)Cc1ccccc1.Cl` [R-(-)-Desmethyldeprenyl hydrochloride], the “Raw Signal” value under setting [3] worked out at 52026. The molecule further came in with a Z-score under setting [4] of -0.6379.
Turning to `CNCC[C@@H](Oc1ccc(C(F)(F)F)cc1)c1ccccc1.Cl` [R-(-)-Fluoxetine hydrochloride], the “Raw Signal” value under setting [3] was 63921. Under setting [8], this molecule displayed a Z-score of 1.778.
`CCCCCC(O)c1cccc(OCc2ccc3ccccc3n2)c1` (centres unmarked) [REV 5901]: under setting [1], the “Raw Signal” value is reported as 62376. Moreover, under setting [2], the Z-score amounted to 1.234.
Take `COC1(C2=NCCN2)COc2ccccc2O1.Cl` (centres unmarked) [RX 821002 hydrochloride]: the “Raw Signal” value under setting [5] turned out to be 56903. This molecule also showed a Z-score under setting [7] of 0.1708.
In the case of `O=C(c1ccc(OCCN2CCCCC2)cc1)c1c(-c2ccc(O)cc2)sc2cc(O)ccc12` [Raloxifene hydrochloride], under setting [5], the “Raw Signal” value is on record as 54124. In addition, the Z-score under setting [6] is listed as -0.3691.
On to `CNC(=C[N+](=O)[O-])NCCSCc1ccc(CN(C)C)o1` [Ranitidine hydrochloride], for which, under setting [5], the “Raw Signal” value was 57122. Moreover, under setting [7], the Z-score came out at 0.2134.
With `COc1ccccc1OCC(O)CN1CCN(CC(=O)Nc2c(C)cccc2C)CC1` (centres unmarked) [Ranolazine dihydrochloride], the “Raw Signal” value under setting [5] is 54866. Also, the Z-score under setting [6] is reported as -0.2249.
In the same order, the values of `COC(=O)[C@H]1[C@H]2C[C@H]3c4[nH]c5ccccc5c4CCN3C[C@H]2CC[C@@H]1O` [Rauwolscine hydrochloride] are 54997 and -0.1995.
On to `Nc1c(S(=O)(=O)O)cc(Nc2ccc(Nc3nc(Cl)nc(Nc4cccc(S(=O)(=O)O)c4)n3)c(S(=O)(=O)O)c2)c2c1C(=O)c1ccccc1C2=O` [Reactive Blue 2], for which, under setting [3], the “Raw Signal” value amounted to 20201. Besides, the Z-score under setting [4] is -6.96.
In the case of `COC(=O)[C@H]1[C@H]2C[C@@H]3c4[nH]c5cc(OC)ccc5c4CCN3C[C@H]2C[C@@H](OC(=O)c2cc(OC)c(OC)c(OC)c2)[C@@H]1OC` [Reserpine], under setting [5], the “Raw Signal” value turned out to be 59002. Under setting [7], the Z-score was found to be 0.1918.
`Oc1ccc(/C=C/c2cc(O)cc(O)c2)cc1` [Resveratrol]: the “Raw Signal” value under setting [5] amounted to 54146. Besides, the Z-score under setting [6] was -0.3648.
As for `CC1=C(/C=C/C(C)=C/C=C/C(C)=C/C(=O)Nc2ccc(O)cc2)C(C)(C)CCC1` [Retinoic acid p-hydroxyanilide], under setting [5], the “Raw Signal” value is listed as 55637. Besides, the Z-score under setting [7] was 0.09545.
Regarding `CC1=C(/C=C/C(C)=C/C=C/C(C)=C/C(=O)O)C(C)(C)CCC1` [Retinoic acid], the “Raw Signal” value under setting [3] is 50659. In addition, under setting [4], the Z-score is -1.042.
Take `NC(=O)c1ncn([C@@H]2O[C@H](CO)[C@@H](O)[C@H]2O)n1` [Ribavirin]: under setting [5], the “Raw Signal” value is reported as 54731. The molecule also had a Z-score under setting [6] of -0.2512.
`C1COC(NC(C2CC2)C2CC2)=N1` [Rilmenidine hemifumarate]: the “Raw Signal” value under setting [5] is reported as 56006. Also, under setting [7], the Z-score was -0.003459.
For `Nc1nc2ccc(OC(F)(F)F)cc2s1` [Riluzole], the “Raw Signal” value under setting [3] stood at 52217. For the same molecule, under setting [4], the Z-score is reported as -0.7396.
Regarding `Cc1nc2n(c(=O)c1CCN1CCC(c3noc4cc(F)ccc34)CC1)CCCC2` [Risperidone], under setting [3], the “Raw Signal” value was found to be 53532. Under setting [4], the Z-score is -0.4841.
`Cc1nc2sccn2c(=O)c1CCN1CCC(=C(c2ccc(F)cc2)c2ccc(F)cc2)CC1` [Ritanserin]: the “Raw Signal” value under setting [5] was 56847. The same molecule yielded a Z-score under setting [7] of 0.1599.
For `CC(NCCc1ccc(O)cc1)C(O)c1ccc(O)cc1` (centres unmarked) [Ritodrine hydrochloride], the “Raw Signal” value under setting [1] turned out to be 59316. In addition, the Z-score under setting [2] is 0.6396.
On to `CNc1cc(NS(=O)(=O)c2ccc(N)cc2)nc(NC)n1.Cl.Cl` [Ro 04-6790 dihydrochloride], for which the “Raw Signal” value under setting [3] is reported as 63150. The molecule further gave a Z-score under setting [8] of 1.384.
In the same order, the values of `NC(=O)c1ccc(OCC(O)CN2CC=C(c3ccc(F)cc3)CC2)cc1` (centres unmarked) [Ro 8-4304] are 63292 and 1.412.
As to `Cl.NCCNC(=O)c1ccc(Cl)cc1` [Ro 16-6491 hydrochloride], under setting [1], the “Raw Signal” value came out at 60492. The molecule further came in with a Z-score under setting [2] of 0.8681.
In the same order, the values of `O=C(c1cc(O)c(O)c([N+](=O)[O-])c1)c1ccccc1F` [Ro 41-0960] are 58523 and 0.4855.
